From patent US9284283B2, “Macrocyclic compounds for modulating IL-17” (ENSEMBLE THERAPEUTICS CORPORATION, priority 2012, dated 2016)

Target: T1, biotinylated human IL-17 (binding to IL17R/Fc) (Homo sapiens, UniProt Q16552)
T1 construct: purchased R&D Systems 317-ILB (IL-17, biotinylated); 177-IR (IL17R/Fc)
T1 sequence (Q16552 20-155 limits assumed): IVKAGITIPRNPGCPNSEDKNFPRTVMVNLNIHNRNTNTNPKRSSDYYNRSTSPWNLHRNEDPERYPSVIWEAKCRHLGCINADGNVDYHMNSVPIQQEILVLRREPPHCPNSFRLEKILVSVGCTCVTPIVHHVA
Experiment: IL-17 competition ELISA II (captured IL17R/Fc, biotinylated IL-17)
Procedure: In this version, a high binding 96-well plate (Costar #9018) was coated with 20 nM of goat anti-human IgG (KPL 01-10-02) in PBS, 100 μL/well, for 30 min at 37° C. followed by 5 min at 4° C. The plate was then washed in PBST (PBS/0.05% Tween-20) on a plate washer, (BioTek ELx450) then blocked with protein-free blocking buffer (Thermo Scientific #37573) in 250 μL/well for 30 min on a shaker at room temperature, and then washed again. IL17R/Fc (R&D Systems #177-IR; 10 nM in PBST, 100 μL/well) was then added to all wells. The plate was then incubated for 30 minutes at room temperature on the shaker.
While the receptor capture step was underway, compound dilutions were prepared in PBST to a concentration of 1 μM in 1.5 mL tubes. After the receptor capture step, the plate was washed and 50 μL PBST was added to the wells in row B down to row H. Then, 62.5 μL of the 1 μM compound dilutions were added to the wells of row A. From row A, 12.5 μL of the compound solution was removed and added to row B with mixing and this process of 5-fold dilutions was continued, by row, to row G. One of the wells in row A received only PBST (62.5 μL) and this dilution series served as the no competitor control. Then, going up from row G to row A, 50 μL of b-IL-17 (biotinylated human IL-17, R&D Systems #317-ILB; 20 nM) was added to all wells. Row H received 50 μL of PBST and served as the blank row, i.e., no compound and no b-IL-17. The plate was then incubated for 30 minutes at room temperature on the shaker.
After the wash, 100 μL Streptavidin-Horseradish Peroxidase (SA-HRP) (KPL #14-30-00) at 25 ng/mL in PBST was added to each well in the plate and the plate incubated for 30 minutes at room temperature followed by wash and 100 μL SureBlue™ TMB (KPL #52-00-03). After sufficient color development (approx 3-6 minutes), the reaction was fixed by the addition of 100 μL/well 0.5 N HCl and absorbance was measured at 450 nm on a BioTek Synergy 2 plate reader. The absorbances of ‘no competitor’ control and blank control should not exceed 1.5 A.U. and 0.06 A.U., respectively.
Data was processed using BioAssay Enterprise v10.1.4 (CambridgeSoft) software. Linear OD λ450 were plotted against log concentration (x) and fitted to a 4-parameter logistic equation. IC50 was calculated using positive ‘no competitor’ control data as an upper limit and blank control as a lower limit in each assay.

IC50 [nM] | Compound
100 to 1000 | O=C1CC2(CCCC2)CC(=O)N[C@H](Cc2ccc(NC(=O)[C@H](Cc3ccccc3Cl)NC(=O)Cc3ccccc3)cc2)C(=O)NC/C=C/CCCCCN1 [Compound 283]
100 to 1000 | O=C1CC2(CCCC2)CC(=O)N[C@H](Cc2ccc(NC(=O)[C@@H](NC(=O)Cc3ccccc3)C3CCCCC3)cc2)C(=O)NCCCCCCCCCN1 [Compound 350]
100 to 1000 | CN1CCCCCNC(=O)CC2(CCCC2)CC(=O)N(C)[C@H](Cc2ccc(N(C)C(=O)[C@H](Cc3ccccc3Cl)N(C)C(=O)Cc3ccccc3)cc2)C(=O)N(C)CC1=O [Compound 363]
< 100 | O=C1CC2(CCCC2)CC(=O)N[C@H](Cc2ccc(NC(=O)[C@H](Cc3ccccc3Cl)NC(=O)Cc3ccc(CO)cc3)cc2)C(=O)NC/C=C/CCCCCN1 [Compound 365]
100 to 1000 | O=C1CC2(CCCC2)CC(=O)N[C@H](Cc2ccc(NC(=O)[C@H](Cc3ccccc3Cl)NC(=O)c3ccccc3)cc2)C(=O)NCCCCCCCCN1 [Compound 366]
1000 to 10000 | CN1CCNC(=O)CC2(CCCC2)CC(=O)N(C)[C@H](Cc2ccc(NC(=O)[C@H](Cc3ccccc3)N(C)C(=O)c3ccccc3)cc2)C(=O)N2CCC[C@H]2C(=O)NCC1 [Compound 371]
1000 to 10000 | CN1CCCCCNC(=O)[C@@H]2CCCN2C(=O)[C@@H](Cc2ccc(NC(=O)[C@H](Cc3ccccc3)N(C)C(=O)c3ccccc3)cc2)N(C)C(=O)CC2(CCCC2)CC1=O [Compound 383]
< 100 | CN1CCCCCN(C)C(=O)CC2(CCCC2)CC(=O)N[C@H](Cc2ccc(NC(=O)[C@H](Cc3ccccc3Cl)NC(=O)Cc3ccccc3)cc2)C(=O)NCC1=O [Compound 387]
< 100 | O=C1CC2(CCCC2)CC(=O)N[C@H](Cc2ccc(NC(=O)[C@H](Cc3ccccc3Cl)NC(=O)Cc3ccccc3)cc2)C(=O)NCCCCN1 [Compound 391]
< 100 | O=C1CC2(CCCC2)CC(=O)N[C@H](Cc2ccc(NC(=O)[C@H](Cc3ccccc3Cl)NC(=O)Cc3ccccc3)cc2)C(=O)NCCCCCN1 [Compound 392]
< 100 | O=C1CC2(CCCC2)CC(=O)N[C@H](Cc2ccc(NC(=O)[C@H](Cc3ccccc3Cl)NC(=O)Cc3ccc(CO)cc3)cc2)C(=O)NCCCCN1 [Compound 393]
< 100 | O=C1CC2(CCCC2)CC(=O)N[C@H](Cc2ccc(NC(=O)[C@H](Cc3ccccc3Cl)NC(=O)Cc3ccc(CO)cc3)cc2)C(=O)NCCCCCN1 [Compound 394]
< 100 | O=C1CNC(=O)[C@@H](Cc2ccc(NC(=O)[C@@H](NC(=O)CC3CCCCC3)C3CCCCC3)cc2)NC(=O)CC2(CCCC2)CC(=O)NCCCCCN1 [Compound 395]
< 100 | O=C1CNC(=O)[C@@H](Cc2ccc(NC(=O)[C@@H](NC(=O)c3ccc(Cl)cc3)C3CCCCC3)cc2)NC(=O)CC2(CCCC2)CC(=O)NCCCCCN1 [Compound 396]
< 100 | O=C1CC2(CCCC2)CC(=O)N[C@H](Cc2ccc(NC(=O)[C@H](Cc3ccccc3Cl)NC(=O)Cc3ccccc3)cc2)C(=O)NCCOCCN1 [Compound 397]
< 100 | O=C1CC2(CCCC2)CC(=O)N[C@H](Cc2ccc(NC(=O)[C@H](Cc3ccccc3Cl)NC(=O)Cc3ccccc3)cc2)C(=O)NCCCN1 [Compound 398]
< 100 | O=C1CC2(CCCC2)CC(=O)N[C@H](Cc2ccc(NC(=O)[C@H](Cc3ccccc3Cl)NC(=O)Cc3ccc(CO)cc3)cc2)C(=O)NCCOCCN1 [Compound 400]
< 100 | O=C1CC2(CCCC2)CC(=O)N[C@H](Cc2ccc(NC(=O)[C@H](Cc3ccccc3Cl)NC(=O)Cc3ccc(CO)cc3)cc2)C(=O)NCCCN1 [Compound 401]
< 100 | CN1CCNC(=O)CC2(CCCC2)CC(=O)N[C@H](Cc2ccc(NC(=O)[C@H](Cc3ccccc3Cl)NC(=O)Cc3ccc(CO)cc3)cc2)C(=O)NCC1 [Compound 402]

IC50 [nM] | Compound
< 100 | O=C1CNC(=O)[C@@H](Cc2ccc(NC(=O)[C@@H](NC(=O)c3ccc(F)cc3)C3CCCCC3)cc2)NC(=O)CC2(CCCC2)CC(=O)NCCCCCN1 [Compound 403]
< 100 | O=C1CNC(=O)[C@@H](Cc2ccc(NC(=O)[C@@H](NC(=O)Cc3c(F)cc(F)cc3F)C3CCCCC3)cc2)NC(=O)CC2(CCCC2)CC(=O)NCCCCCN1 [Compound 404]
100 to 1000 | O=C1CC2(CCCC2)CC(=O)N[C@H](Cc2ccc(NC(=O)[C@@H](NC(=O)c3cccnc3)C3CCCCC3)cc2)C(=O)NCCCCCCCCCN1 [Compound 407]
100 to 1000 | O=C1CC2(CCCC2)CC(=O)N[C@H](Cc2ccc(NC(=O)[C@@H](NC(=O)c3cccnc3)C3CCCCC3)cc2)C(=O)NCCCCN1 [Compound 409]
100 to 1000 | O=C1CC2(CCCC2)CC(=O)N[C@H](Cc2ccc(NC(=O)[C@@H](NC(=O)Cc3ccc(F)cc3)C3CCCCC3)cc2)C(=O)NCCCCN1 [Compound 410]
< 100 | O=C1CC2(CCCC2)CC(=O)N[C@H](Cc2ccc(NC(=O)[C@H](Cc3ccccc3Cl)NC(=O)Cc3ccccc3)cc2)C(=O)NCCNCCN1 [Compound 411]
100 to 1000 | O=C1CC2(CCCC2)CC(=O)N[C@H](Cc2ccc(NC(=O)[C@H](Cc3ccccc3Cl)NC(=O)Cc3ccc(CO)cc3)cc2)C(=O)NCCNCCN1 [Compound 412]
100 to 1000 | O=C1CNC(=O)[C@@H](Cc2ccc(NC(=O)[C@@H](NC(=O)Cc3ccccc3)c3ccccc3)cc2)NC(=O)CC2(CCCC2)CC(=O)NCCCCCN1 [Compound 415]
< 100 | CN1CCNC(=O)CC2(CCCC2)CC(=O)N[C@H](Cc2ccc(NC(=O)[C@H](Cc3ccccc3Cl)NC(=O)Cc3ccccc3)cc2)C(=O)N[C@H](Cc2ccccc2)C(=O)N(C)CC1 [Compound 416]
100 to 1000 | O=C1CC2(CCCC2)CC(=O)N[C@H](Cc2ccc(NC(=O)[C@@H](NC(=O)c3cccnc3)C3CCCCC3)cc2)C(=O)NCCOCCOCCN1 [Compound 417]
100 to 1000 | O=C1CC2(CCCC2)CC(=O)N[C@H](Cc2ccc(NC(=O)[C@H](Cc3ccccc3Cl)NC(=O)c3cccnc3)cc2)C(=O)NCCCCN1 [Compound 420]
1000 to 10000 | CN1CCCCCNC(=O)C(Cc2ccc(NC(=O)C(NC(=O)c3cccnc3)C3CCCCC3)cc2)NC(=O)CC2(CCCC2)CC1=O (centres unmarked) [Compound 421]
1000 to 10000 | CN1CCCCCNC(=O)CC2(CCCC2)CC(=O)NC(Cc2ccc(NC(=O)C(NC(=O)c3cccnc3)C3CCCCC3)cc2)C1=O (centres unmarked) [Compound 422]
1000 to 10000 | O=C1CC2(CCCC2)CC(=O)OCCCCCNC(=O)[C@@H](Cc2ccc(NC(=O)[C@@H](NC(=O)c3cccnc3)C3CCCCC3)cc2)N1 [Compound 423]
100 to 1000 | CN1CCNCCOC(=O)CC2(CCCC2)CC(=O)N(C)[C@H](Cc2ccc(NC(=O)[C@H](Cc3ccccc3Cl)NC(=O)Cc3ccccc3)cc2)C(=O)N[C@H](Cc2ccccc2)C1=O [Compound 426]
< 100 | C[C@H]1NC(=O)[C@@H](Cc2ccc(NC(=O)[C@H](Cc3ccccc3Cl)NC(=O)c3cnc4ccccc4c3)cc2)NC(=O)CC2(CCCC2)CC(=O)NCCCCCNC1=O [Compound 428]
< 100 | C[C@H]1NC(=O)[C@@H](Cc2ccc(NC(=O)[C@H](Cc3ccccc3Cl)NC(=O)c3cncc4ccccc34)cc2)NC(=O)CC2(CCCC2)CC(=O)NCCCCCNC1=O [Compound 429]
< 100 | CN(C)CCOc1ccc(CC(=O)N[C@@H](Cc2ccccc2Cl)C(=O)Nc2ccc(C[C@H]3NC(=O)CC4(CCCC4)CC(=O)NCCCCCNC(=O)[C@@H](Cc4ccccc4)NC3=O)cc2)cc1 [Compound 431]
< 100 | NCCCC[C@H]1NC(=O)[C@@H](Cc2ccc(NC(=O)[C@H](Cc3ccccc3Cl)NC(=O)Cc3ccccc3)cc2)NC(=O)CC2(CCCC2)CC(=O)NCCCCCNC1=O [Compound 432]
